Laboratory results taken from patent US11993574B2, “Pyrazole and imidazole compounds for inhibition of IL-17 and RORgamma” (REATA PHARMACEUTICALS, INC., priority 2018, dated 2024).

How the values were obtained:
Format in all cases: cell-based
[1] = system: Nrf2 transcription factor; test: AREc32 luciferase reporter assay; details: Homo sapiens; AREc32 cells, 19 hours; concentration required to increase GST ARE luciferase reporter activity by 2-fold; read-out: NRF2 ARE 2-Fold (EC2×)
How it was run: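 AREc32 cells (MCF-7 with firefly luciferase under eight rat GSTA2 ARE copies) treated 19 h with compound (0.4-200 nM or 3.9-2000 nM) in triplicate. Luminescence normalized to DMSO as fold-induction, capped at 50-fold. EC2× = concentration giving 2-fold reporter increase, interpolated from variable-slope fit.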

[2] = biological target: T1, Human RAR-related Orphan Receptor Gamma (RORγ) (Homo sapiens, UniProt P51449); test: RORγ assay (GAL4-RORγ hybrid luciferase reporter, Indigo Biosciences); details: inverse-agonist activity, GAL4-RORγ reporter cells, 23 hours
T1 sequence (P51449 269-508 limits assumed): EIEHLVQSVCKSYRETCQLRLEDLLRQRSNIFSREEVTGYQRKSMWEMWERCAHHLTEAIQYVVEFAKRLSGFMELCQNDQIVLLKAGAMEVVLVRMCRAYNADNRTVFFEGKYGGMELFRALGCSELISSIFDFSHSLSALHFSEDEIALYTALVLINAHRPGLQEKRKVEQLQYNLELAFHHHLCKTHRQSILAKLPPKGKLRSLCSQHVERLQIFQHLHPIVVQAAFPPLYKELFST
How it was run: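 […]engineered human reporter cell line expressing GAL4-DBD/RORγ-LBD hybrid with GAL4-UAS luciferase; constitutive activity measured as inverse agonism. Cells treated with compound (7.8-2000 nM) for 23 h at 37 °C; luminescence normalized to DMSO, IC50 by variable-slope fit, with parallel viability readout to flag non-specific inhibition.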

IL-17A = test: IL-17 release from differentiated primary human T-cells (IL-17A HTRF assay); details: primary human CD4+ T cells differentiated into Th17 cells, 45-hour incubation, IL-17A in supernatant; read-out: hIL17 IC50
How it was run: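 Primary human CD4+ T cells (~2×10^5/well) given compound (2–500 or 4–1000 nM, 0.1% DMSO), CD3/CD28-activated and Th17-differentiated (TGF-β, IL-6, IL-23, IL-1β) for 45 h at 37° C. Supernatant IL-17A by HTRF against standard curve, normalized to vehicle; IC50 by variable-slope regression, with parallel CyQuant viability.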

| Structure (SMILES) | EC (2-fold) [1] [µM] | IC50 [2] [nM] | IC50 (IL-17A) [nM] |
| --- | --- | --- | --- |
| Cc1ccc(-n2nc(-c3ccccc3)c3c2[C@]2(C)C=C(C#N)C(=O)[C@H](C)[C@H]2CC3)nc1 [T31] | 0.298 | 91 | 100 |
| C[C@H]1C(=O)C(C#N)=C[C@@]2(C)c3c(c(-c4ccccc4)nn3-c3ccc(Cl)c(Cl)c3)CC[C@H]12 [T10] | 0.26 | 88 | 78 |
| C[C@H]1C(=O)C(C#N)=C[C@@]2(C)c3c(c(-c4ccncn4)nn3-c3ccc(-c4cccc(F)c4)cn3)CC[C@H]12 [T58] | 0.355 | 128 | 43 |
| C[C@H]1C(=O)C(C#N)=C[C@@]2(C)c3c(c(-c4cccnc4)nn3-c3ccc(-c4ccccc4)cc3)CC[C@H]12 [T68] | 0.248 | 36 | 27 |
| C[C@H]1C(=O)C(C#N)=C[C@@]2(C)c3nc(-c4cccc(Br)c4)n(-c4cccc(F)c4)c3CC[C@H]12 [T145] | 0.755 | 92 | 87 |
| C[C@H]1C(=O)C(C#N)=C[C@@]2(C)c3c(c(-c4ccccc4F)nn3-c3nc4cc(C(F)(F)F)ccc4s3)CC[C@H]12 [T88] | 0.743 | 219 | 11 |
| CC(C)c1ccc(-n2nc(-c3ccccc3)c3c2[C@]2(C)C=C(C#N)C(=O)[C@H](C)[C@H]2CC3)cc1 [T25] | 0.149 | 92 | 28 |
| COc1ccc(-c2ccc(-n3nc(-c4ccccc4)c4c3[C@]3(C)C=C(C#N)C(=O)[C@H](C)[C@H]3CC4)cc2)cc1 [T46] | 0.219 | 65 | 20 |
| C[C@H]1C(=O)C(C#N)=C[C@@]2(C)c3nn(C4CCCCC4)c(-c4ccccc4)c3CC[C@H]12 [T1] | 1.45 | 174 | 65 |
| C[C@H]1C(=O)C(C#N)=C[C@@]2(C)c3c(c(-c4ccccc4F)nn3-c3nc(-c4ccccc4)cs3)CC[C@H]12 [T87] | 1.26 | 685 | 27 |
| C[C@H]1C(=O)C(C#N)=C[C@@]2(C)c3c(c(-c4ccncc4)nn3-c3ccc(-c4ccccc4)cc3)CC[C@H]12 [T67] | 0.269 | 49 | 26 |
| C[C@H]1C(=O)C(C#N)=C[C@@]2(C)c3nn(-c4cccc5ccccc45)c(-c4ccccc4)c3CC[C@H]12 [T24] | 0.827 | 284 | 30 |
| C[C@H]1C(=O)C(C#N)=C[C@@]2(C)c3nc(-c4ccnc(N5CCOCC5)c4)n(-c4cccc(F)c4)c3CC[C@H]12 [T139] | 0.66 | 112 | 128 |
| C[C@H]1C(=O)C(C#N)=C[C@@]2(C)c3nc(C4CCOCC4)n(-c4cccc(F)c4)c3CC[C@H]12 [T130] | 1.78 | 345 | 273 |
| C[C@H]1C(=O)C(C#N)=C[C@@]2(C)c3nn(-c4ccc(-c5ccccc5)cc4)c(-c4ccncn4)c3CC[C@H]12 [T120] | 0.908 | 92 | 54 |
| C[C@H]1C(=O)C(C#N)=C[C@@]2(C)c3c(c(-c4ccncn4)nn3-c3ccc(-c4ccnc(CF)c4)cc3)CC[C@H]12 [T54] | 0.355 | 52 | 33 |
| C[C@H]1C(=O)C(C#N)=C[C@@]2(C)c3nn(-c4ccc(Cl)cc4)c(-c4ccccc4)c3CC[C@H]12 [T114] | 0.894 | 106 | 507 |
| CNc1nn(-c2ccc(-c3ccccc3)cc2)c2c1CC[C@@H]1[C@@H](C)C(=O)C(C#N)=C[C@@]21C [T79] | 1.04 | 140 | 178 |

| Structure (SMILES) | EC (2-fold) [1] [µM] | IC50 [2] [nM] | IC50 (IL-17A) [nM] |
| --- | --- | --- | --- |
| C[C@H]1C(=O)C(C#N)=C[C@@]2(C)c3c(c(-c4ccc(CO)cc4)nn3-c3ccc(-c4ccccc4)cc3)CC[C@H]12 [T73] | 0.159 | 40 | 30 |
| C[C@H]1C(=O)C(C#N)=C[C@@]2(C)c3nc(-c4cccc(-c5ccccc5)c4)n(-c4cccnc4)c3CC[C@H]12 [T155] | 0.738 | 201 | 161 |
| C[C@H]1C(=O)C(C#N)=C[C@@]2(C)c3c(c(-c4ccccc4F)nn3-c3nc4ccccc4[nH]3)CC[C@H]12 [T91] | > 2 | > 2000 | > 500 |
| C[C@H]1C(=O)C(C#N)=C[C@@]2(C)c3c(c(-c4ccccc4)nn3C3CCOCC3)CC[C@H]12 [T27] | 0.204 | 132 | 61 |
| Cc1nc(-c2ccc(-n3nc(-c4ccc(F)cc4)c4c3[C@]3(C)C=C(C#N)C(=O)[C@H](C)[C@H]3CC4)cc2)no1 [T182] | 0.249 | 96 | 32 |
| C[C@H]1C(=O)C(C#N)=C[C@@]2(C)c3c(c(-c4ccccc4F)nn3-c3nc4ccc(Cl)cc4s3)CC[C@H]12 [T89] | 0.482 | 251 | 13 |
| CC(C)c1cccc(-c2nc3c(n2-c2cccc(F)c2)CC[C@@H]2[C@@H](C)C(=O)C(C#N)=C[C@@]32C)c1 [T138] | 0.941 | 284 | 201 |
| C[C@H]1C(=O)C(C#N)=C[C@@]2(C)c3nn(Cc4ccccc4)c(-c4ccccc4)c3CC[C@H]12 [T4] | 0.914 | 140 | 223 |
| C[C@H]1C(=O)C(C#N)=C[C@@]2(C)c3nc(-c4cccc(-c5cncc(F)c5)c4)n(-c4cccc(F)c4)c3CC[C@H]12 [T148] | 0.566 | 149 | 86 |
| C[C@H]1C(=O)C(C#N)=C[C@@]2(C)c3nc(C4CCCCC4)n(-c4ccccc4)c3CC[C@H]12 [T113] | > 1 | 172 | 181 |
| CC(C)c1ccc(-c2nc3c(n2Cc2ccc(F)cc2)CC[C@@H]2[C@@H](C)C(=O)C(C#N)=C[C@@]32C)cc1 [T167] | 1.11 | 245 | 53 |
| Cc1ccccc1-c1nn(-c2ccc(-c3ccccc3)cc2)c2c1CC[C@@H]1[C@@H](C)C(=O)C(C#N)=C[C@@]21C [T72] | 0.205 | 138 | 10 |
| C[C@H]1C(=O)C(C#N)=C[C@@]2(C)c3nc(-c4ccnc5ccccc45)n(-c4cccc(F)c4)c3CC[C@H]12 [T135] | 0.896 | 141 | 160 |
| COc1ccc(-n2nc3c(c2-c2ccccc2)CC[C@@H]2[C@@H](C)C(=O)C(C#N)=C[C@@]32C)cc1 [T116] | 0.483 | 80 | 191 |
| C[C@H]1C(=O)C(C#N)=C[C@@]2(C)c3c(c(Nc4ccccc4)nn3-c3ccc(-c4ccccc4)cc3)CC[C@H]12 [T100] | 0.319 | 110 | 16 |
| CC(=O)n1c(-c2ccc(C(C)C)cc2)nc2c1CC[C@@H]1[C@@H](C)C(=O)C(C#N)=C[C@@]21C [T174] | 0.923 | 1600 | 368 |
| C[C@H]1C(=O)C(C#N)=C[C@@]2(C)c3nn(-c4ccc(-c5ccccc5)cc4)c(-c4ccccc4)c3CC[C@H]12 [T22] | 1.05 | 175 | 56 |
| C[C@H]1C(=O)C(C#N)=C[C@@]2(C)c3c(c(-c4ccccc4)nn3-c3ccc(OC(F)(F)F)cc3)CC[C@H]12 [T19] | 0.247 | 85 | 32 |
